Source: paper PMC4032265 (PLoS ONE, 2014)
Where two headings read alike, the source gives them in different places.

Experiments:
[1] = target: H2 histaminergic receptor (Homo sapiens, UniProt P25021); test: PDSP radioligand binding, H2; details: read-out: % inhibition at 10 µM
D1 dopaminergic receptor = D1 dopaminergic receptor (Homo sapiens, UniProt P21728); test: PDSP radioligand binding, D1; details: read-out: % inhibition at 10 µM
D3 dopaminergic receptor = D3 dopaminergic receptor (Homo sapiens, UniProt P35462); test: PDSP radioligand binding, D3; details: read-out: % inhibition at 10 µM
KXα3β4 receptor 2 = target: T1, KXα3β4 receptor 2 (Rattus norvegicus, UniProt P04757+P12392); test: 86Rb+ efflux, nicotinic acetylcholine receptor antagonist activity, KXα3β4 receptor 2 cells; assay type: cell-based; details: cells expressing KXα3β4 receptor 2
T1 construct: expressed in transfected cells; host or cells: KXα3β4 receptor 2 (KXα3β4R2) cells

YXα3β4H1 receptor = target: T2, YXα3β4H1 receptor (Homo sapiens, UniProt P30926+P32297); test: 86Rb+ efflux, nicotinic acetylcholine receptor antagonist activity, YXα3β4H1 cells; assay type: cell-based; details: cells expressing YXα3β4H1 receptor
T2 construct: expressed in transfected cells

KXα4β2 receptor 2 = target: T3, KXα4β2 receptor 2 (Rattus norvegicus, UniProt P09483+P12390); test: [3H]epibatidine binding in cells expressing KXα4β2 receptor 2
T3 construct: expressed in transfected cells

hA1AR [2] = target: T4, hA1AR (Homo sapiens, UniProt P30542); test: Radioligand binding at hA1AR; details: compounds 8 and 9, measured for this study
T4 sequence (P30542 1-326): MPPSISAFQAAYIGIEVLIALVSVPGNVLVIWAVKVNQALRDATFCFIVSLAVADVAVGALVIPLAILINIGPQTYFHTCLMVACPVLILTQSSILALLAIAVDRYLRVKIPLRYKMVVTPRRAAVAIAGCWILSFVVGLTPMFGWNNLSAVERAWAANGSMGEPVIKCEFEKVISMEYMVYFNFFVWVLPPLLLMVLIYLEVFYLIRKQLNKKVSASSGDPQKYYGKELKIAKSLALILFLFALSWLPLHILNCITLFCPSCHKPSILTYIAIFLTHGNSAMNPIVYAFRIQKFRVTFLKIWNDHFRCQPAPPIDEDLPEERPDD

hA2AAR [3] = target: T5, hA2AAR (Homo sapiens, UniProt P29274); test: Radioligand binding at hA2AAR; details: compounds 8 and 9, measured for this study
hA3AR = hA3AR (Homo sapiens, UniProt P0DMS8); test: Radioligand binding at hA3AR
5HT2B receptor = 5HT2B receptor (Homo sapiens, UniProt P41595); test: 5HT2B functional assay, antagonist mode (inhibition of agonist activity); assay type: cell-based; details: for % inhibition as antagonist at 5HT2B: 10 µM; for IC50: antagonist mode
5HT2C receptor = 5HT2C receptor (Homo sapiens, UniProt P28335); test: 5HT2C functional assay, antagonist mode (inhibition of agonist activity); assay type: cell-based; details: 10 µM
hA1AR [4] = target: T4, hA1AR; details: ref 1-4 of Table S1 (Tosh et al. 2009, 2012); cited from earlier work
hA2AAR [5] = target: T5, hA2AAR; parameters: method as in earlier work; details: ref 1-4 of Table S1 (Tosh et al. 2009, 2012); cited from earlier work
α2C adrenergic receptor = target: T6, α2C adrenergic receptor (Homo sapiens, UniProt P18825); test: α2C adrenergic receptor functional assay (antagonist); assay type: cell-based
T6 sequence (P18825 1-462): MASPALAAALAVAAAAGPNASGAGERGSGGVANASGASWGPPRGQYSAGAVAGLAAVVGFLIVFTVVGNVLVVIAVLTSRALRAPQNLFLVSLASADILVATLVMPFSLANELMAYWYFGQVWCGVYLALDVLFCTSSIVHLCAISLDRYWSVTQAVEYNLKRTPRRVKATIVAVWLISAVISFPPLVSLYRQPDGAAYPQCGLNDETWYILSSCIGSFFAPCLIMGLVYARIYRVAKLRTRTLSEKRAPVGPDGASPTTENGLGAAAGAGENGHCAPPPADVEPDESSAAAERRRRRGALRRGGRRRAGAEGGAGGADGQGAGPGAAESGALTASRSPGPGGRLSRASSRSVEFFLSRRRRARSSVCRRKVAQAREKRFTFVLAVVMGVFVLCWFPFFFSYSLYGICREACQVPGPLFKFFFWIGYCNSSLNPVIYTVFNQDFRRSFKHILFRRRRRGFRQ

[6] = read-out: IC50 at 5HT2B receptors (Figure S2)

Row | SMILES | inhibition at 10 µM (D1 dopaminergic receptor; single concentration 10 µM) [%] | inhibition at 10 µM (D3 dopaminergic receptor; single concentration 10 µM) [%] | hA1AR % inhibition (hA1AR [4]) | hA2AAR % inhibition (hA2AAR [5]) | also measured
1 | O[C@@H]1[C@H](O)[C@@H]2C[C@@H]2[C@H]1n1cnc2c(NC(C3CC3)C3CC3)nc(Cl)nc21 [Compound 10] | 0 | 8 |  |  | inhibition at 10 µM ([1]; single concentration 10 µM): 13%; IC50 (KXα3β4 receptor 2): 21200 nM; IC50 (YXα3β4H1 receptor): 30300 nM; inhibition of [3H]epibatidine binding (KXα4β2 receptor 2): no inhibition
2 | O[C@@H]1[C@H](O)[C@@H]2C[C@@H]2[C@H]1n1cnc2c(NCc3cccc(Cl)c3)ncnc21 [Compound 7] | 2 | 4 |  |  | 
3 | Fc1ccc(C#Cc2nc(NCc3cccc(Cl)c3)c3nc[nH]c3n2)cc1F [Compound 8] | 0 | 23 |  |  | hA1AR % inhibition (hA1AR [2]): < 10%; hA2AAR % inhibition (hA2AAR [3]): < 10%; Ki (hA3AR): 120 nM
4 | CNC(=O)[C@@]12C[C@@H]1[C@@H](n1cnc3c(NCc4cccc(Cl)c4)nc(Cl)nc31)[C@H](O)[C@@H]2O [Compound 4] | 11 | 22 |  |  | % inhibition as antagonist at 5HT2B (5HT2B receptor): 60%; IC50 (5HT2B receptor; read-out: IC50, inhibition of agonist activity at 5HT2B): 887 nM; IC50 (5HT2B receptor; [6]): 3260 nM; % inhibition as antagonist at 5HT2C (5HT2C receptor): 94%
5 | CNC(=O)[C@@]12C[C@@H]1[C@@H](n1cnc3c(NCc4cccc(Cl)c4)nc(C#Cc4ccc(F)cc4)nc31)[C@H](O)[C@@H]2O [Compound 2] | 19 | 4 | 20%±6% | 42%±2% | 
6 | Clc1cccc(CNc2nc(Cl)nc3[nH]cnc23)c1 [Compound 9] | 0 | 6 |  |  | % inhibition as antagonist at 5HT2B (5HT2B receptor): 26%; IC50 (5HT2B receptor; [6]): 890 nM; % inhibition as antagonist at 5HT2C (5HT2C receptor): 65%; IC50 (α2C adrenergic receptor): 2900 nM; hA1AR % inhibition (hA1AR [2]): 45%±3%; hA2AAR % inhibition (hA2AAR [3]): 37%±1%; Ki (hA3AR): 165 nM
7 | O[C@@H]1[C@H](O)[C@@H]2C[C@@H]2[C@H]1n1cnc2c(NCc3cccc(Cl)c3)nc(C#Cc3ccc(F)c(F)c3)nc21 [Compound 6] | 3 | 0 | 29%±1% |  | inhibition at 10 µM ([1]; single concentration 10 µM): 0%
8 | CNC(=O)[C@@]12C[C@@H]1[C@@H](n1cnc3c(NCc4cccc(Cl)c4)nc(C#Cc4ccc(F)c(F)c4)nc31)[C@H](O)[C@@H]2O [Compound 1] |  |  | < 10% | 41%±10% | inhibition at 10 µM [1]: 34%; inhibition at 10 µM (D1 dopaminergic receptor): 13%; inhibition at 10 µM (D3 dopaminergic receptor): 2%
9 | CNC(=O)[C@@]12C[C@@H]1[C@@H](n1cnc3c(NC)nc(C#Cc4ccc(F)c(F)c4)nc31)[C@H](O)[C@@H]2O [Compound 5] | 0 | 4 | < 10% | < 10% | 
10 | CNC(=O)[C@@]12C[C@@H]1[C@@H](n1cnc3c(NCc4cccc(Cl)c4)nc(C#Cc4ccccc4Cl)nc31)[C@H](O)[C@@H]2O [Compound 3] | 27 | 7 | 19%±2% | 52%±12% | 
